For 35 compounds, melting point results are on record in a melting point compilation (Tetko et al.; mined from patent text by program, amines drawn as free bases though some values may be those of a salt).

Residues, ends and D or L forms follow the SMILES beside them. *: point of attachment. Cbz = O=C(OCc1ccccc1)* Some results are limits rather than exact numbers.

The term melting point denotes the temperature, or range, at which the solid turns liquid.

The compound `C#Cc1cc(Nc2ncnc3cnc(NC(=O)/C=C/CN(C)C)cc23)ccc1Cl` showed a melting point of 173 to 176 °C. In turn, `COc1ccc(OCC(O)CN2CCC(C3Oc4ccccc4Cn4cccc43)CC2)cc1` (stereo not given) showed a melting point of 95 to 120 °C. Then `O=C1c2ccccc2C(=O)N1Cc1cccc(CN2C(=O)c3ccccc3C2=O)n1`, with over 250 °C; and `CCOC(=O)c1ccc2nc(CC3CCN(c4ccc(Cl)nn4)CC3)sc2c1`, with 158 °C. In the case of `Cc1cc(Oc2ccccc2)c(S(C)(=O)=O)cc1C(=O)O` it was 195 °C; in that of `Cc1ccc(-c2nc3sc4ccccc4n3c2CC(=O)N(C)C)s1`, 216 to 218 °C; in that of `COc1nc2cc(C)c(C)cc2nc1C(=O)O`, 180 to 182 °C. In the case of `COc1cccc(C(=N)NN2CCc3ccccc3C2=O)c1` it was 176 to 177 °C; in that of `COc1cc(OCCN2CCc3ccccc3C2)ccc1C=NNC(=O)c1ccc(O)c(N)c1`, 162 to 164 °C. In turn, `N#CCCSN1C(=O)c2ccccc2C1=O` had a melting point of 162 to 164 °C. Then `CCCC1=C(C(=O)OCC)SCCS1=O` (stereo not given), with 109 to 110 °C; and `S=C1Nc2ccccc2Cn2cccc21`, with 228 to 231 °C; and `Cc1cccc(NC(=O)C(C)Oc2ccc(Oc3ccc(C#N)cc3)cc2)n1` (stereo not given), with 109 to 111 °C. Then `CC(C)(C)c1nc2cc(N3CCSCC3)c(N=C=S)cc2s1`, with 155 to 159 °C; and `CC(C)(C)OC(=O)Nc1ccc(C#Cc2ccc(F)cc2)cc1N`, with 180 °C; and `CCOC(=O)c1c(CCc2ccc(OC)cc2)oc2ccc(C#N)cc12`, with 135 to 139 °C.

In turn, `COC[C@H]1CN(c2ccc3oc(-c4ccccc4)cc3c2)C(=O)O1` returned a melting point of 178 to 179 °C. In the case of `CCC(=O)Nc1c(C#N)cnn1-c1c(Cl)cc(SC(F)(F)F)cc1Cl` it was 153 to 156 °C; in that of `O=c1oc(-c2ccccc2)cc(O)c1C(CCCSc1ccccc1)Sc1ccccc1` (stereo not given), 75 to 77 °C. In the case of `Cc1nc2ccc(Oc3ncccc3C(=O)NCc3ccc(C(C)(C)O)cc3)cc2s1` it was 131 to 133 °C; in that of `CCCCOC(=O)C(N)c1ccc(OCC(O)CNC(C)C)nc1` (stereo not given), 85 to 87 °C. With `O=C(O)CCCCCC1=CCCC1=O`, the melting point lay in the range of 70 to 72 °C. In the case of `CNc1nc(-c2ccc3c(c2)NC(=O)CO3)c(-c2ccccc2)s1` it was 236 to 248 °C. Turning to `Cc1ccc(-c2ccc3c(c2)C=C(C(=O)O)CC3)cc1`, the melting point lay within 230 to 231 °C. In the case of `Fc1cc(CC2(Cc3ccnc(F)c3)c3cccnc3-c3sccc32)ccn1` it was 157 to 159 °C; in that of `OC1C=C(c2ccc(C(F)(F)F)cc2)CN(Cc2ccccc2)C1` (stereo not given), 88 to 90 °C; in that of `CCN1C(=O)C(OC(=O)C(C)(C)C)=C(c2c(C)cc(C)cc2C)C1=O`, 91 °C. Then `CCOC(=O)C(C)(Cc1ccc(OCCN2CCCCC2)cc1)S(=O)(=O)c1ccc(OC)cc1` (stereo not given), with 106 °C. For the compound `CCOC(=O)c1ccc(N(CCOc2ccc(C#N)c3ccccc23)C(=O)C(F)(F)F)cc1`, the melting point fell in the range of 150 to 151 °C. Then `CSc1nccc(-c2c[nH]c(=O)n2-c2ccc(F)cc2)n1`, with 260 to 261 °C; and `CC(C)(C)c1cc(-c2ccc(C(=O)O)c(C(C)(C)C)c2)ccc1O`, with over 240 °C. For `CC(C)NCC(O)c1cc(Cl)c(N)c(C(F)(F)F)c1` (stereo not given), the melting point lay within 104 to 106 °C.

`NC(=O)NCc1ccc(Nc2n[nH]c3ncnc(Nc4cccc(Cl)c4)c23)cc1` returned a melting point of over 280 °C.

The compound `CCOc1cc(CCCOc2c(CC(=O)O)cccc2OC)n(Cc2ccc(Cl)cc2Cl)n1` yielded a melting point of 109 to 110 °C. For the compound `C[C@H](NC(=O)[C@H](C)NC(=O)OCc1ccccc1)C(=O)O` (Cbz-Ala-Ala-OH), the melting point lay within 203 to 205 °C.
